Molecules are shown by their SMILES. Starred links: 1 amine or outer side, 2 acyl side, 3 side chain; linkers in the order of their positions; H or OH if unused. Positions of bridges follow the written chain, without caps; N, C: chain ends. Non-standard residues stand in square brackets, D forms with d. Residues, ends and D or L forms follow the SMILES beside them. Groups on a side chain read outwards from the residue. *: point of attachment. JQ1acid = Cc1sc2c(c1C)C(c1ccc(Cl)cc1)=N[C@@H](CC(=O)*)c1nnc(C)n1-2; dPhg(4-(4-Me-thiazol-5-yl)) = Cc1ncsc1-c1ccc([C@@H](N)C(=O)O)cc1; Phg(4-(4-Me-thiazol-5-yl)) = Cc1ncsc1-c1ccc([C@H](N)C(=O)O)cc1; X2 = COc1ccc2c(c1)C(c1ccc(Cl)cc1)=N[C@@H](CC(=O)*)c1nnc(C)n1-2; X12 = Cc1sc2c(c1C)C(c1ccc(Cl)cc1)=N[C@H](CC(=O)*)c1nnc(C)n1-2; X6 = Cc1ncsc1-c1ccc([C@H](CC(=O)[*:2])N[*:1])cc1; dBip = N[C@H](Cc1ccc(-c2ccccc2)cc1)C(=O)O; NHCH2CH2SCH2CO = O=C(CSCCN[*:1])[*:2]; Hyp = O=C(O)[C@@H]1C[C@@H](O)CN1; Tle = CC(C)(C)[C@H](N)C(=O)O; AEEEA = NCCOCCOCCOCC(=O)O; dDap = NC[C@@H](N)C(=O)O; AEA = NCCOCC(=O)O

The target of this assay is T1, BRD4 (Homo sapiens, UniProt O60885).
T1 construct: Mean 488 intensity of BRD4 quantitated in nuclear region; endogenous in cells; host or cells: EoL-1 eosinophilic leukemia cells
In words: BRD4 degradation assay in EOL1 cells (immunofluorescence imaging). The format is cell-based. The settings on record: EoL-1 eosinophilic leukemia cells, 4 hours treatment, nuclear BRD4 immunofluorescence. Summed up: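 EoL-1 cells treated 4 h at 37 °C with 20-point 1/3 serial dilutions (0.2% DMSO) in RPMI/10% FBS, then fixed and immunostained for BRD4. Mean nuclear BRD4 intensity measured by high-content imaging, with Hoechst nuclear masking. DMSO and no-primary-antibody controls define 0 and 100%; DC50 and maximal effect from dose-response fit.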
For `Cc1ncsc1-c1ccc([C@H]2NC(=O)[C@@H]3C[C@@H](O)CN3C(=O)[C@H](C(C)(C)C)NC(=O)CSCCNC(=O)[C@@H](CNC(=O)C[C@@H]3N=C(c4ccc(Cl)cc4)c4c(sc(C)c4C)-n4c(C)nnc43)NC(=O)CNC2=O)cc1` [Compound 46] (cyclo(G[dDap](JQ1acid)[NHCH2CH2SCH2CO][Tle][Hyp][dPhg(4-(4-Me-thiazol-5-yl))])), the DC50 (in general, the concentration giving 50% degradation) is less than 1000 nM.

`Cc1ncsc1-c1ccc([C@@H]2NC(=O)[C@@H]3C[C@@H](O)CN3C(=O)[C@H](C(C)(C)C)NC(=O)CSCCNC(=O)[C@@H](CNC(=O)C[C@@H]3N=C(c4ccc(Cl)cc4)c4c(sc(C)c4C)-n4c(C)nnc43)NC(=O)CNC2=O)cc1` [Compound 47] (cyclo(G[dDap](JQ1acid)[NHCH2CH2SCH2CO][Tle][Hyp][Phg(4-(4-Me-thiazol-5-yl))])): the DC50 is more than 20000 nM.

`Cc1sc2c(c1C)C(c1ccc(Cl)cc1)=N[C@@H](CC(=O)NC[C@H]1NC(=O)CNC(=O)[C@@H](Cc3ccc(-c4ccccc4)cc3)NC(=O)[C@@H]3C[C@@H](O)CN3C(=O)[C@H](C(C)(C)C)n3cc(nn3)COCCNC1=O)c1nnc(C)n1-2` [Compound 48]: the DC50 was less than 50 nM.

`Cc1ncsc1-c1ccc([C@H]2NC(=O)[C@@H]3C[C@@H](O)CN3C(=O)[C@H](C(C)(C)C)NC(=O)CSC[C@H](C(N)=O)NC(=O)[C@@H](CNC(=O)COCCOCCOCCNC(=O)C[C@@H]3N=C(c4ccc(Cl)cc4)c4c(sc(C)c4C)-n4c(C)nnc43)NC(=O)CNC2=O)cc1` [Compound 49] ({CH2CO}-[Tle][Hyp][dPhg(4-(4-Me-thiazol-5-yl))]G[dDap]([AEEEA-JQ1acid])[dC]-NH2; thioether N-6) yielded a DC50 of more than 20000 nM.

Consider `COc1ccc2c(c1)C(c1ccc(Cl)cc1)=N[C@@H](CC(=O)NC[C@H]1NC(=O)CNC(=O)[C@@H](c3ccc(-c4scnc4C)cc3)NC(=O)[C@@H]3C[C@@H](O)CN3C(=O)[C@H](C(C)(C)C)NC(=O)CSC[C@H](C(N)=O)NC1=O)c1nnc(C)n1-2` [Compound 50] ({CH2CO}-[Tle][Hyp][dPhg(4-(4-Me-thiazol-5-yl))]G[dDap](X2)[dC]-NH2; thioether N-6), for which the DC50 is less than 1000 nM.

On to `COc1ccc2c(c1)C(c1ccc(Cl)cc1)=N[C@@H](CC(=O)NC[C@H]1NC(=O)CNC(=O)[C@H](c3ccc(-c4scnc4C)cc3)NC(=O)[C@@H]3C[C@@H](O)CN3C(=O)[C@H](C(C)(C)C)NC(=O)CSC[C@H](C(N)=O)NC1=O)c1nnc(C)n1-2` [Compound 51] ({CH2CO}-[Tle][Hyp][Phg(4-(4-Me-thiazol-5-yl))]G[dDap](X2)[dC]-NH2; thioether N-6), for which the DC50 is more than 20000 nM.

Consider `COc1ccc2c(c1)C(c1ccc(Cl)cc1)=N[C@@H](CC(=O)NC[C@H]1NC(=O)[C@@H](C(C)C)NC(=O)[C@@H](Cc3ccc(-c4ccccc4)cc3)NC(=O)[C@@H]3C[C@@H](O)CN3C(=O)[C@H](C(C)(C)C)NC(=O)COCCNC1=O)c1nnc(C)n1-2` [Compound 52] (cyclo([AEA][Tle][Hyp][dBip][dV][dDap](X2))), for which the DC50 is less than 50 nM.

With `Cc1ncsc1-c1ccc([C@H]2NC(=O)[C@@H]3C[C@@H](O)CN3C(=O)[C@H](C(C)(C)C)NC(=O)CSC[C@H](C(N)=O)NC(=O)[C@@H](CNC(=O)C[C@H]3N=C(c4ccc(Cl)cc4)c4c(sc(C)c4C)-n4c(C)nnc43)NC(=O)CNC2=O)cc1` [Compound 53] ({CH2CO}-[Tle][Hyp][dPhg(4-(4-Me-thiazol-5-yl))]G[dDap](X12)[dC]-NH2; thioether N-6), the DC50 is more than 20000 nM.

As for `Cc1ncsc1-c1ccc([C@@H]2CC(=O)NCC(=O)N[C@H](CNC(=O)C[C@@H]3N=C(c4ccc(Cl)cc4)c4c(sc(C)c4C)-n4c(C)nnc43)C(=O)NCCOCC(=O)N[C@@H](C(C)(C)C)C(=O)N3C[C@H](O)C[C@H]3C(=O)N2)cc1` [Compound 54] (cyclo([AEA][Tle][Hyp][X6]G[dDap](JQ1acid))), the DC50 is less than 50 nM.

(Values after patent US12187816B2, “Macrocyclic compounds and methods of use thereof” (Genentech, Inc., priority 2020, dated 2025).)
